The values below come from ChEMBL document CHEMBL5247668, “Design, synthesis and biological evaluation of novel indole-3-carboxylic acid derivatives with antihypertensive activity” (Bioorg Med Chem Lett, 2023).

By IC50 is commonly meant the concentration that inhibits the measured activity by half. A higher IC50 goes with weaker potency in that assay. By Ki is commonly meant a measure of affinity in units of concentration, obtained from inhibition or displacement. The AUC(0-inf) is the area under the concentration-time curve extrapolated to infinity. As a reminder, the AUC(0-t) is the area under the concentration-time curve up to a stated or last time point. Broadly, the Cmax is the highest concentration seen after dosing. What is called half-life is the time needed for the level to fall by half in the phase considered. For orientation: Tmax means the time from dosing to the highest level. The MRT last is the average time that molecules of a dose stay in the body. Usually MRT inf stands for the average time that molecules of a dose stay in the body.

Activity calls are given as the source filed them.

Series [1] addresses T1, Type-1 angiotensin II receptor (Homo sapiens, UniProt P30556).
T1 sequence (P30556 whole entry): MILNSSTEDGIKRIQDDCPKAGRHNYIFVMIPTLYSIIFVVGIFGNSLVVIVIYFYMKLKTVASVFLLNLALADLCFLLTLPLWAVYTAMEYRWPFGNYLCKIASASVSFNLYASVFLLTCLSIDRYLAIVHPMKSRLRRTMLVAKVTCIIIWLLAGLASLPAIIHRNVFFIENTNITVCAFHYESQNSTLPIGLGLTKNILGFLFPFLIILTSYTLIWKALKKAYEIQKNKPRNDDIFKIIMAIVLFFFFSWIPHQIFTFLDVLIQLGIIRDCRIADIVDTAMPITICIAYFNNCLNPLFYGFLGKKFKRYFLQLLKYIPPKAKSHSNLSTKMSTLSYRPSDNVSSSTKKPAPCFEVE
The series can be described thus: Displacement of [125I]-Angiotensin II from Angiotensin II type-1 receptor in VSMC cells (unknown origin) by competition radioligand binding assay. In kind it is cell-based. A general note: Loss of bound radioactivity is the signal in a displacement assay; it reports binding, not function.

The target in series [2] is T1, Type-1 angiotensin II receptor. Put plainly: Displacement of [125I]-Angiotensin II from Angiotensin II type-1 receptor in VSMC cells (unknown origin) assessed as inhibition constant by competition radioligand binding assay. It is filed as cell-based.
The subject of series [3] is Rattus norvegicus. The series can be described thus: Antihypertensive activity in spontaneously hypertensive rat assessed as decrease in blood pressure at 5 to 10 mg/kg, po. In kind it is functional, organism-based. To be noted: dose 5-10 mg/kg.
In series [4] the test system is Rattus norvegicus. The series can be described thus: Antihypertensive activity in spontaneously hypertensive rat assessed as decrease in maximal mean blood pressure at 10 mg/kg, po. It is filed as functional.
Series [5] can be described thus: AUC (0 to infinity) in spontaneously hypertensive Wistar rat at 10 mg/kg, po. More on the design: dose 10 mg/kg, route po. In kind it is ADME, organism-based. To be noted: in vivo.
The test system of series [6] is Rattus norvegicus. The series can be described thus: Antihypertensive activity in spontaneously hypertensive rat assessed as decrease in maximal mean blood pressure at 10 mg/kg, po measured for 24 hrs. It is filed as functional, organism-based.
A short description of series [7]: AUC (0 to 72 hrs) in spontaneously hypertensive Wistar rat at 10 mg/kg, po. More on the design: dose 10 mg/kg, route po. It is filed as ADME, organism-based. To be noted: in vivo.
Series [8] is described as follows: Cmax in spontaneously hypertensive Wistar rat at 10 mg/kg, po. It is filed as ADME, organism-based. Also on record: dose 10 mg/kg, route po. Particulars: in vivo.
Series [9] is described as follows: Half life in spontaneously hypertensive Wistar rat at 10 mg/kg, po. To be noted: in vivo. In kind it is ADME, organism-based.
Series [10] in a line: Tmax in spontaneously hypertensive Wistar rat at 10 mg/kg, po. In kind it is ADME, organism-based. Particulars: in vivo.
A short description of series [11]: MRT (0 to 72 hrs) in spontaneously hypertensive Wistar rat at 10 mg/kg, po. It is filed as ADME, organism-based. Particulars: in vivo.
A short description of series [12]: MRT (0 to infinity) in spontaneously hypertensive Wistar rat at 10 mg/kg, po. In kind it is ADME, organism-based. To be noted: in vivo.

On to `CCCCc1c(C(=O)O)c2ccccc2n1S(=O)(=O)c1ccc(C)cc1`, for which the IC50 in [1] came to 28.3 nM. The Ki in series [2] was 27.3 nM. Besides, the outcome with Rattus norvegicus [3] was Active.
Compound `O=C(O)c1c(CO)n(C(=O)c2ccccc2)c2ccccc12` gave an IC50 in series [1] of 31.1 nM. Moreover, in series [2], the Ki amounted to 30.8 nM. Further, the result with Rattus norvegicus [3] was Active.
Regarding `CS(=O)(=O)n1c(COCc2ccccc2)c(C(=O)O)c2ccccc21`, the IC50 in series [1] came to 25.5 nM. In addition, the Ki in series [2] was determined as 24.7 nM. The result in the series on Rattus norvegicus [3] was Active.
Turning to `CCCCc1nc(Cl)c(CO)n1Cc1ccc(-c2ccccc2-c2nnn[nH]2)cc1` [LOSARTAN], the Activity in the series with Rattus norvegicus [4] was 42.5 mmHg.
Turning to `Cc1ccc(S(=O)(=O)n2c(CO)c(C(=O)O)c3ccccc32)cc1`, the half-inhibitory concentration (IC50) in series [1] stood at 24.2 nM. For the same compound, the Ki in [2] worked out at 23.3 nM. Moreover, the outcome with Rattus norvegicus [3] was Active.
On to `O=C(O)c1c(-c2ccccc2)n(C(=O)c2ccccc2)c2ccccc12`, for which, in the series with Rattus norvegicus [4], the Activity is 48.6 mmHg. In series [5], this compound registered an area under the curve AUC(0-inf) of 260 ng·h/mL. The same compound showed an IC50 in series [1] of 12.3 nM. Moreover, the result with Rattus norvegicus [6] and in the series on Rattus norvegicus [3] was Active. Moreover, the AUC(0-t) in series [7] amounted to 253 ng·h/mL. The highest concentration (Cmax) in series [8] amounted to 18.1 ng/mL. This compound had a half-life in [9] of 19.9 h. In addition, the Tmax in [10] is 2.7 h. Also, in [2], the Ki was determined as 11 nM. In addition, the MRT last in [11] is 20.2 h. This compound also had an MRT inf in series [12] of 30.3 h.
The compound `CS(=O)(=O)n1c(CO)c(C(=O)O)c2ccccc21` showed an IC50 in series [1] of 27.1 nM. In addition, the Ki in series [2] was 26.3 nM. In addition, the result with Rattus norvegicus [3] was Active.
In the case of `CS(=O)(=O)n1c(-c2ccccc2)c(C(=O)O)c2ccccc21`, the Activity in the series with Rattus norvegicus [4] turned out to be 46.3 mmHg. This compound also returned an IC50 in series [1] of 11.3 nM. Also, the outcome with Rattus norvegicus [6] and in the series with Rattus norvegicus [3] was Active. The Ki in series [2] amounted to 10.8 nM.
On to `O=C(O)c1c(COCc2ccccc2)n(C(=O)c2ccccc2)c2ccccc12`, for which, in series [1], the IC50 stood at 32.2 nM. Further, the Ki in series [2] was found to be 31.4 nM. Further, the outcome in the series on Rattus norvegicus [3] was Active.
On to `CCCCc1c(C(=O)O)c2ccccc2n1C(=O)c1ccccc1`, for which, in series [1], the IC50 is 22.2 nM. Also, the Ki in series [2] came out at 21.9 nM. Moreover, in the series on Rattus norvegicus [3], the outcome was Active.
In series [1], `CCCCc1c(C(=O)O)c2ccccc2n1S(C)(=O)=O` gave an IC50 of 29.2 nM. The Ki in series [2] came to 28.6 nM. Moreover, the outcome with Rattus norvegicus [3] was Active.
Compound `Cc1ccc(S(=O)(=O)n2c(-c3ccccc3)c(C(=O)O)c3ccccc32)cc1` had an IC50 in series [1] of 18 nM. Besides, the inhibition constant (Ki) in [2] amounted to 16.4 nM. Moreover, the result with Rattus norvegicus [3] was Active.
The compound `Cc1ccc(S(=O)(=O)n2c(COCc3ccccc3)c(C(=O)O)c3ccccc32)cc1` came in with an IC50 in series [1] of 22.4 nM. In addition, the Ki in series [2] stood at 21.7 nM. Moreover, in the series with Rattus norvegicus [3], the result was Active.
